Source: patent EP4458353A1, “ANTICARIOGENIC SYNERGETIC COMPOSITION FOR ORAL CARE” (SkyLab AG, priority 2023, dated 2024)
Read-outs that look alike come from different tables or passages of the source.

Columns and labels:
Type in all cases: cell-based
Streptococcus mutans [1] = experiment: Minimum inhibitory concentration (MIC), serial two-fold dilution with resazurin test; settings: for MIC: Streptococcus mutans
Streptococcus sobrinus [2] = experiment: as above; settings: for MIC: Streptococcus sobrinus
Streptococcus mutans [3] = experiment: Minimum biofilm inhibitory concentration (MBIC), crystal violet staining; settings: S. mutans; for MBIC in indicvdual replicates Replicate 1 / MBIC in indicvdual replicates Replicate 2 / MBIC in indicvdual replicates Replicate 3 / MBIC in indicvdual replicates Replicate 4 / MBIC in indicvdual replicates Replicate 5: 24 h incubation; for MBIC Median value: median of 5 replicates
Description: (§1) Group of examples No 4 - 6. Anti-biofilm activity of the substance or of the composition of substances was assessed from minimum biofilm inhibitory concentration (MBIC) and from the rate of biofilm formation on hydroxyapatite disks.
(§2) Reference strains Streptococcus mutans and S. Sobrinus were used as the bacterial models.
(§3) Example No 4. MBIC as the measure of the substance effect on the bacterial biofilm is equal to minimum concentration inhibiting the biofilm formation or disruption of already formed biofilm during 24 hour incubation.
(§4) MBIC of individual components of the composition, specifically, naringenin, guava leaf CO2 extract, and enzymes lysozyme and labiase can be determined according to the procedure: • 1) All stages of nutritive medium preparation, preparation and incubation of bacterial cultures in 96-well microtiter plates with the test composition of the substances added into nutritive medium were as described in Example 1. • 2) All controls for the culture growth, for purity of nutritive medium and for solvents were as described in Example 1. • 3) Incubate the plates at 37 °C for 24 ± 4 h without the use the orbital shaker. • 4) Stain the bacterial biofilm accumulated on bottom of the plate wells with crystal violet. For this purpose remove the planktonic culture from the plate wells after 24 h incubation and wash with two portions of phosphate-buffered saline (PBS, pH 7.4) to remove remaining planktonic culture. Then dry the plate for 12-15 hours. Add 100 µL of 0.5% crystal violet solution (Sigma-Aldrich, USA), dissolved in 96% ethanol followed by incubation for 20 minutes. After removal of crystal violet solution from the wells wash the plate with 3-4 portions of PBS. After drying add […] of 96% ethanol into the wells to elute the crystal violet, which has bound to the biofilm. • 5) Shake the plate on the orbital shaker for 2 minutes at 37 °C and then measure optical density (OD) at the wavelength of 550nm using multimodal microplate reader against the blank (the well, where the sterile medium LB was incubated and then exposed to all staining manipulations). Since the serial dilution method with 2-fold dilution steps is used for MBIC determination, the difference between the adjacent dilution is considered as non-significant, and MBIC is defined as the median value calculated for 5 independent biological replicates of the experiment. • 6) The following concentrations were tested: naringenin and guava leaf extract at concentrations 1.6, 0.8, 0.4, 0.2, 0.1, 0.05 mg/mL; lysozyme and labiase at concentrations 4.0, 2.0, 1.0, 0.5, 0.25, 0.125 mg/mL. Well-known antibacterial components were used as controls: chlorohexidine bigluconate at concentrations 64, 32, 16, 8, 4 µg/mL; zinc gluconate at concetrations 5.0, 2.5, 1.25, 0.6, 0.3, 0.15 mg/mL.

Streptococcus sobrinus [4] = experiment: as above; settings: S. sobrinus; for MBIC in indicvdual replicates Replicate 1 / MBIC in indicvdual replicates Replicate 2 / MBIC in indicvdual replicates Replicate 3 / MBIC in indicvdual replicates Replicate 4 / MBIC in indicvdual replicates Replicate 5: 24 h incubation; for MBIC Median value: median of 5 replicates
Description: as §1, §2, §3, §4

[5] = 24 h, read-out: MIC value in individual replicate Replicate 1
[6] = 24 h, read-out: MIC value in individual replicate Replicate 2
[7] = 24 h, read-out: MIC value in individual replicate Replicate 3
[8] = 24 h, read-out: MIC value in individual replicate Replicate 4
[9] = 24 h, read-out: MIC value in individual replicate Replicate 5

Row | Compound | MBIC in indicvdual replicates Replicate 1 (Streptococcus mutans [3]) | MBIC in indicvdual replicates Replicate 2 (Streptococcus mutans [3]) | MBIC in indicvdual replicates Replicate 3 (Streptococcus mutans [3]) | MBIC in indicvdual replicates Replicate 4 (Streptococcus mutans [3]) | MBIC in indicvdual replicates Replicate 5 (Streptococcus mutans [3]) | MBIC Median value (Streptococcus mutans [3]) | MBIC in indicvdual replicates Replicate 1 (Streptococcus sobrinus [4]) | MBIC in indicvdual replicates Replicate 2 (Streptococcus sobrinus [4]) | MBIC in indicvdual replicates Replicate 3 (Streptococcus sobrinus [4]) | MBIC in indicvdual replicates Replicate 4 (Streptococcus sobrinus [4]) | MBIC in indicvdual replicates Replicate 5 (Streptococcus sobrinus [4]) | MBIC Median value (Streptococcus sobrinus [4]) | other results
1 | N=C(NCCCCCCNC(=N)NC(=N)Nc1ccc(Cl)cc1)NC(=N)Nc1ccc(Cl)cc1 [Chlorohexidine bigluconate, chlorohexidine bigluconate] | 8.0 µg/mL | 8.0 µg/mL | 8.0 µg/mL | 8.0 µg/mL | 4.0 µg/mL | 8.0 µg/mL | 4.0 µg/mL | 4.0 µg/mL | 8.0 µg/mL | 4.0 µg/mL | 4.0 µg/mL | 4.0 µg/mL | MIC (Streptococcus mutans [1]; [5]): 8 µg/mL; MIC (Streptococcus mutans [1]; [6]): 8 µg/mL; MIC (Streptococcus mutans [1]; [7]): 8 µg/mL; MIC (Streptococcus mutans [1]; [8]): 8 µg/mL; MIC (Streptococcus mutans [1]; [9]): 8 µg/mL; MIC (Streptococcus mutans [1]; read-out: MIC Median value): 8 µg/mL; MIC (Streptococcus sobrinus [2]; [5]): 4 µg/mL; MIC (Streptococcus sobrinus [2]; [6]): 4 µg/mL; MIC (Streptococcus sobrinus [2]; [7]): 4 µg/mL; MIC (Streptococcus sobrinus [2]; [8]): 8 µg/mL; MIC (Streptococcus sobrinus [2]; [9]): 4 µg/mL; MIC (Streptococcus sobrinus [2]; read-out: MIC Median value): 4 µg/mL
2 | zinc gluconate | 1250 µg/mL | 1250 µg/mL | 600 µg/mL | 600 µg/mL | 600 µg/mL | 600 µg/mL | 5000 µg/mL | 5000 µg/mL | 2500 µg/mL | 2500 µg/mL | 2500 µg/mL | 2500 µg/mL | MIC value in individual replicate Replicate 1 (Streptococcus mutans [1]; S. mutans, 24 h at 37 °C): 600 µg/mL; MIC value in individual replicate Replicate 2 (Streptococcus mutans [1]; S. mutans, 24 h at 37 °C): 600 µg/mL; MIC value in individual replicate Replicate 3 (Streptococcus mutans [1]; S. mutans, 24 h at 37 °C): 300 µg/mL; MIC value in individual replicate Replicate 4 (Streptococcus mutans [1]; S. mutans, 24 h at 37 °C): 300 µg/mL; MIC value in individual replicate Replicate 5 (Streptococcus mutans [1]; S. mutans, 24 h at 37 °C): 300 µg/mL; MIC Median value (Streptococcus mutans [1]; S. mutans, median of 5 replicates): 300 µg/mL; MIC value in individual replicate Replicate 1 (Streptococcus sobrinus [2]; S. sobrinus, 24 h at 37 °C): 5000 µg/mL; MIC value in individual replicate Replicate 2 (Streptococcus sobrinus [2]; S. sobrinus, 24 h at 37 °C): 5000 µg/mL; MIC value in individual replicate Replicate 3 (Streptococcus sobrinus [2]; S. sobrinus, 24 h at 37 °C): 5000 µg/mL; MIC value in individual replicate Replicate 4 (Streptococcus sobrinus [2]; S. sobrinus, 24 h at 37 °C): 5000 µg/mL; MIC value in individual replicate Replicate 5 (Streptococcus sobrinus [2]; S. sobrinus, 24 h at 37 °C): 5000 µg/mL; MIC Median value (Streptococcus sobrinus [2]; S. sobrinus, median of 5 replicates): 5000 µg/mL
